The results in this text go back to patent publication US7863323B1, “Flavonols” (The University of Melbourne, priority 2006, dated 2011).

Series [1] has as its system rat isolated thoracic aorta (aortic rings). Kind of series: Vasorelaxation (direct relaxation assay) in precontracted aortic rings. The format is cell-based. The note with it: for vasorelaxation activity in the relaxation assay: FIG. 1b, qualitative; for Emax: read-out: Rmax (%) maximum response in the relaxation assay. The text has this: (§1) Vascular activity can be tested in standard organ bath assays using rat isolated thoracic aorta. The synthesized flavonols were first assayed for their ability to inhibit contractions induced by phenylephrine (PE), since it has been previously shown that flavonols can act as functional antagonists of PE. Next, the efficacy of the various flavonols would be determined in a direct relaxation assay. […] It was expected that the flavonols should reduce the magnitude of PE-induced contractions in endothelium-intact aortic rings, thus reducing the maximum response (Rmax) for PE-induced contractions.
(§2) Male Sprague-Dawley rats (200-400 g) were euthanised by exposure to 80% CO2, 20% O2, and their chests opened to isolate the thoracic aortae. After the removal of superficial connective tissues, the aorta was cut into ring segments, of approximately 2-3 mm in length. The aortic rings were then mounted between two stainless steel wires, one of which was linked to an isometric force transducer connected to a chart recorder, and the other end anchored to a glass rod submerged in a standard 10 mL organ bath. The organ bath was filled with Krebs-bicarbonate solution [composition (mM): NaCl, 118.0; KCl, 4.7; KH2PO4, 1.2; MgSO4.7H2O, 1.2; glucose, 5.0; NaHCO3, 25.0; CaCl2.2H2O, 2.5]. The bath medium was maintained at 37° C., pH 7.4 and continuously aerated with 95% O2, 5% CO2.
Aortic rings were equilibrated for 1 h at a resting tension of 1 g, then were precontracted with an isotonic, high potassium physiological salt solution (KPSS) in which all of the NaCl of the normal Krebs solution was replaced with KCl (122.7 mM), so as to achieve maximal contraction. The solution was then washed out and replaced with normal Krebs solution. After re-equilibration, the rings were submaximally contracted with phenylephrine (PE, 10^−8-10^−7 M) and endothelial integrity was tested by a single dose of acetylcholine (Ach, 10^−5 M). Only rings that responded to Ach (≧90% relaxation) were judged endothelium intact and were used in the subsequent experiments. The aortic rings were then re-equilibrated (15 min) before the subsequent experiment.
Aortic rings were precontracted submaximally with phenylephrine (10^−8-10^−7 M) and the thromboxane mimetic, 9,11-dideoxy-9α,11α-epoxymethano-prostaglandin F2α (U46619, 10^−10-10^−9 M) to approximately 50% of KPSS-induced contraction. After stabilization of the contraction, cumulative doses of the flavonol or vehicle (10^−10-10^−4 M) were added to generate a concentration-response curve. Relaxant responses were expressed as a percentage of the precontraction tension.
The results are expressed as the mean±s.e. mean and n indicates the number of experiments (rats). Relaxation concentration-response curves for diOHF were computer fitted to a sigmoidal curve using non-linear regression (Prism version 4) to enable calculation of pEC50 of the flavonols. […] Maximum relaxation responses were compared using a one way analysis of variance (ANOVA) with post-hoc multiple comparison using Newman-Keuls test. Superoxide levels were compared using a one way analysis of variance (ANOVA) with post hoc multiple comparison using Dunnett's test.

For series [2], the system named is rat isolated thoracic aorta (endothelium-intact aortic rings), PE-induced contractions. Kind of series: Effect of flavonols on phenylephrine-induced vasoconstriction (organ bath). The format is cell-based. The note with it: FIG. 1a, compared with diOHF, qualitative.
Text: as §1, §2
Aortic rings were equilibrated for 1 h at a resting tension of 1 g, then were precontracted with an isotonic, high potassium physiological salt solution (KPSS) in which all of the NaCl of the normal Krebs solution was replaced with KCl (122.7 mM), so as to achieve maximal contraction. The solution was then washed out and replaced with normal Krebs solution. […]
Aortic rings were incubated with a β-adrenoceptor antagonist, propranolol (10^−5 M), and either vehicle or flavonol (10^−4-10^−5 M) for 15 min before cumulative doses of phenylephrine (10^−9-10^−4.5 M) were added to generate a concentration-response curve to phenylephrine. Contraction responses were expressed as a percentage of KPSS-induced tension.

Series [3] in a line: Solubility of succinamic acid flavonols in 0.1 M Na2CO3 solution. The format is physicochemical. The note with it: for maximum concentrations attained: in 0.1 M Na2CO3 solution; for solubility in comparison with the unmodified moiety: qualitative. The protocol:
Acetylcholine perchlorate was obtained from BDH Chemicals (Poole, Dorset, England). Phenylephrine and propranolol was purchased from Sigma-Aldrich Pty. Ltd. (Castle Hill, NSW, Australia). DiOHF was purchased from Indofine Chemical Co. Inc. (Belle Mead, N.J., U.S.A.). All other flavonols were synthesized in this study. […] was purchased from Cayman Chemical (Ann Arbor, Mich., U.S.A.). All chemicals were dissolved in distilled water, except the following. DiOHF was dissolved in 10% dimethyl sulphoxide (DMSO), 90% methanol, with subsequent dilutions in 50% methanol (10^−3 M), and distilled water (10^−4-10^−7 M). Succinamic acid-substituted flavonols were dissolved in 0.1 M Na2CO3 as a stock solution (B and C at 10^−1 and D at 10^−2 M), and further diluted in distilled water as required.

Series [4] concerns superoxide (NADPH oxidase-driven) in isolated rat aortic rings. Kind of series: Lucigenin-enhanced chemiluminescence assay of superoxide in isolated aortic rings. The format is cell-based. As to conditions: rat aortic rings incubated with NADPH; FIG. 2; compared with diOHF; qualitative. As to the method:
Since the vascular activity of the synthesized flavonols was attenuated, it was of great interest to test these compounds for antioxidant activity. Antioxidant activity can be assessed in a tissue-based lucigenin-enhanced chemiluminescence assay. Isolated rat aortic rings were incubated with NADPH and the various flavonols. NADPH, a substrate for NADPH oxidase in the vasculature, increases superoxide production. Superoxide that is produced reacts with lucigenin, leading to the emission of photons, which can be quantified to give a measure of superoxide levels.
Superoxide concentrations were measured in isolated aortic rings by lucigenin-enhanced chemiluminescence. Prior to assaying, the aortic rings were incubated at 37° C. for 1 h in Krebs-EPES buffer containing DETCA (3×10^−5 M), which inactivates superoxide dismutase, NADPH (10^−4 M) and either vehicle, succinamic acid-substituted flavonol (10^−4 or 10^−5 M) or diOHF (10^−4 or 10^−5 M). Assay solutions consisting of lucigenin (5×10^−6 M), NADPH (10^−4 M) and either vehicle (DMSO), succinamic acid-substituted flavonol (10^−4 or 10^−5 M) or 3′,4′-dihydroxyflavonol (diOHF, 10^−4 or 10^−5 M), as a positive control, were prepared in Krebs-HEPES buffer [composition (mM): NaCl, 99.0; KCl, 4.7; KH2PO4, 1.0; MgSO4.7H2O, 1.2; glucose, 11.0; NaHCO3, 25.0; CaCl2.2H2O, 2.5; Na-HEPES, 20.0]. 300 μL aliquots of the assay solution were placed into separate wells on a 96-well Optiplate, which was loaded into a TopCount single photon counter (Packard Bioscience) to determine the background emission (12 cycles). After background counting was completed, one aortic ring was added per well, and photon emission was counted (12 cycles). Superoxide levels were reported as a percentage of photon emission for +NADPH control. At the conclusion of the assay, the aortic rings were dried for 48 h at 80° C. for normalization of superoxide production to dry tissue weight.
The results are expressed as the mean±s.e. mean and n indicates the number of experiments (rats). […]

Where [5] appears, read: rat aortic rings precontracted with phenylephrine and U46619, percentage of precontraction tension, mean ± s.e. mean.

Entries after “also recorded” stand apart in the source; their conditions may differ. Read-outs that look alike come from different tables or passages of the source.

Consider `O=C(O)CCC(=O)Nc1ccc2oc(-c3ccccc3)c(O)c(=O)c2c1` [B, 6-(Hydroxycarbonylethylcarbonylamino)flavonol], for which the “vasorelaxation activity in the relaxation assay” value (“vasorelaxation activity” for short) in series [1] is “weak vasorelaxation activity”. The Emax in series [1] (setting [5]) was found to be 47 ± 2%. Also, the “inhibition of PE-induced contractions (vascular activity)” value (“inhibition of PE-induced contractions” below) in series [2] is reported as “less effective than diOHF”. In series [3], the maximum concentrations attained is recorded as 10^−1 M and the “solubility in comparison with the unmodified moiety” value (“solubility in comparison” for short) is “improved solubility”. The “antioxidant activity (superoxide levels)” value in series [4] was “moderate to good antioxidant activity”.

In the case of `O=C(O)CCC(=O)Nc1ccc2oc(-c3ccc(O)cc3)c(O)c(=O)c2c1` [C, 4′-Hydroxy-6-(hydroxycarbonylethylcarbonylamino)flavonol], the “vasorelaxation activity” value in series [1] was “weak vasorelaxation activity”. In addition, the Emax in series [1] (setting [5]) turned out to be 80 ± 5%. Moreover, in series [2], the “inhibition of PE-induced contractions” value is given as “less effective than diOHF”. In addition, in series [3], the maximum concentrations attained is listed as 10^−1 M and the “solubility in comparison” value is “improved solubility”. Further, the “antioxidant activity (superoxide levels)” value in series [4] is on record as “little effect”.

Turning to `O=C(O)CCC(=O)Nc1ccc2oc(-c3ccc(O)c(O)c3)c(O)c(=O)c2c1` [D, 3′,4′-Dihydroxy-6-(hydroxycarbonylethylcarbonylamino)flavonol], the “vasorelaxation activity” value in series [1] is recorded as “slight contractions were observed at high concentrations”. The Emax in series [1] (setting [5]) is -25 ± 3%. Besides, the “inhibition of PE-induced contractions” value in series [2] was “less effective than diOHF; also recorded: vascular activity was completely abolished”. In series [3], the maximum concentrations attained is 10^−2 M and the “solubility in comparison” value is on record as “improved solubility”. In series [4], the “antioxidant activity (superoxide levels)” value was “moderate to good antioxidant activity; also recorded: superoxide levels were substantially reduced”.

As for `O=c1c(O)c(-c2ccc(O)c(O)c2)oc2ccccc12` [diOHF, 3′,4′-dihydroxyflavonol, reference compound], the Emax in series [1] (Rattus norvegicus) was determined as 105 ± 2%. The EC50 in series [1] (Rattus norvegicus, read-out: pEC50 (relaxation) (converted)) was 4.68 µM.
